The source of these data is patent US20110130405A1, “SUBSTITUTED QUINAZOLINES AS BLOOD PLATELET LOWERING AGENTS” (Shire LLC, priority 2008, published 2011).

As a reminder, the IC50 is the point on the concentration scale where inhibition reaches its midpoint.

Series [1] deals with human megakaryocytopoiesis. To be noted: cited from earlier work.
In series [2] the test system is erythroid or myelomonocytic differentiation. The following applies: stimulated by erythropoietin or granulocyte-macrophage colony-stimulating factor; cited from earlier work.
Series [3] concerns the target human phosphodiesterase III (PDE III). The following applies: cited from earlier work.
The conditions of series [4]: human; cited from earlier work.
Series [5] has as its system human phosphodiesterase III (PDE III). Kind of series: PDE III inhibition. Type of series: biochemical. To be noted: more potent than anagrelide. The source says: In early volunteer trials, the most frequently reported adverse effects AEs other than headache were palpitations, postural dizziness and nausea. During patient studies, the most frequently reported drug-related AEs were headache, palpitations, oedema/fluid retention, nausea/vomiting, diarrhea, dizziness and abdominal pain. These effects are all likely to arise from the secondary, cardiovascular pharmacology associated with anagrelide resulting from its inhibitory effects on human phosphodiesterase III (PDE III). […] Inhibition of myocardial PDE III leads to positive inotropy (increasing of the force of contractions of the heart), increased chronotropy (increase in heart rate), and peripheral vasodilatation. Such cardiovascular manifestations of this inhibition are typically seen with the classical positive inotropes, milrinone and enoximone, and exploited in the short-term acute treatment of congestive heart failure. However, in the treatment of a so-called silent disease (i.e., asymptomatic) such as ET, the cardiovascular side-effects of palpitations and tachycardia associated with anagrelide limit its utility and a significant proportion of patients—reportedly between 25 and 50%—fail to tolerate the drug during long term treatment.

Series [6] can be described thus: pharmacokinetics in humans. Type of series: in vivo, human. To be noted: after anagrelide treatment. From the text: The metabolism of anagrelide generally proceeds extremely rapidly, resulting in a less than ideal pharmacokinetic profile of the drug. […] This, combined with the side-effects profile, can lead to poor patient compliance. Furthermore, anagrelide undergoes a large first pass effect (>50%) leading to considerable intersubject variation in achieved exposures and, therefore, potentially variable drug response. Also, exposure to the pharmacologically active metabolite varies dramatically between patients since its formation is dependent on CYP1A, an enzyme whose expression is highly dependent on exposure to inducing agents such as cigarette smoke. Overall, this may result in the need for careful dose titration in patients being treated with anagrelide.

Some results are limits rather than exact numbers.

Consider `O=C1CN2Cc3c(ccc(Cl)c3Cl)N=C2N1` [Anagrelide, 6,7-dichloro-1,5-dihydroimidazo[2,1-b]-quinazolin-2(3H)-one], for which the IC50 was around 26 nM in series [1] (in vitro, dose-dependent, read-out: estimated IC50, inhibition of TPO-induced megakaryocytopoiesis) and around 29 nM in series [3]. Further, the “effect on erythroid or myelomonocytic differentiation” value in series [2] was “does not affect”. Also, the first pass effect in series [4] was above 50%.
As for `Cc1[nH]c(=O)c(C#N)cc1-c1ccncc1` [milrinone], in series [3], the IC50 was 170 to 350 nM.
On to `O=C1NC2=Nc3ccc(Cl)c(Cl)c3CN2C1O` (stereo not drawn) [3-hydroxyanagrelide], for which, in series [5], the “potency as PDE III inhibitor relative to anagrelide” value is “over 40 fold”. Further, in series [6], the “in vivo exposure relative to parent drug” value is reported as 2-3 fold. Besides, the “potency of inhibition of megakaryocytopoiesis relative to parent drug” value in series [1] (compared with anagrelide) is listed as “no more potent than the parent drug”. For the same compound, the typical half-life in series [4] was 2.5 h.
